Test results: USRE47078E1, “Polymorphic forms of N-[4-(trifluoromethyl)benzyl]-4-methoxybutyramide” (Laboratorio Farmaceutico C.T. S.R.L., priority 2007, dated 2018)
Converted amounts (≈) assume the structure as drawn.

Key:
[1] = system: Rat; conditions: compared with GHB, according to EP 0 932 597 B1; cited from earlier work
[2] = Solubility of the polymorphs at different pH (HPLC assay); assay type: physicochemical
Method: Both samples of powder (Form A and Form B) were used in order to evaluate the solubility properties of the two polymorphs at different pH.
The two samples were tested in the following pH conditions: • Hydrochloric acid buffer at pH=1.2 • Acetic acid at pH=3.0 • Phosphate buffer at pH=3.0 • Phosphate buffer at pH=4.6 • Phosphate buffer at pH=6.0 • Phosphate buffer at pH=7.4 • Alkaline phosphate buffer at pH=8.0
0.5 g of each samples were dissolved in a glass flask using 100 ml of the appropriate buffer. The two samples were then kept under stirring for 30 minutes. If the samples were completed dissolved, 1 additional gram was added in the flask and stirred for 30 minutes. The procedure was repeated till the presence of undissolved product in the bottom of the flask. After such a dissolution procedure, the samples were stored for 24 hours and then the dissolved amounts of Form A and Form B, respectively, were determined by HPLC assay.

[3] = Thermodynamic stability / interconversion of the polymorphs; assay type: physicochemical

## COCCCC(=O)NCc1ccc(C(F)(F)F)cc1 [N-[4-(trifluoromethyl)benzyl]-4-methoxybutyramide]
[1]
  Potency and duration of action on motor activity: better than GHB

## COCCCC(=O)NCc1ccc(C(F)(F)F)cc1 [Polymorphic Form B, N-[4-(trifluoromethyl)benzyl]-4-methoxybutyramide]
[2]; Water
  Solubility, After 24 hours: 162.64 µg/mL (≈ 591 µM)
  Solubility, Initial evaluation: 125.44 µg/mL (≈ 456 µM)
[2]; dissolution tests on each polymorph
  Differences in solubility / dissolution properties between the two forms: have not shown differences in the solubility properties
[2]; pH 1.2
  Solubility, After 24 hours: 164.47 µg/mL (≈ 597 µM)
  Solubility, Initial evaluation: 136.12 µg/mL (≈ 494 µM)
[2]; pH 3.0 (acetic acid)
  Solubility, After 24 hours: 164.84 µg/mL (≈ 599 µM)
  Solubility, Initial evaluation: 143.69 µg/mL (≈ 522 µM)
[2]; pH 3.0 (phosphate buffer)
  Solubility, After 24 hours: 156.73 µg/mL (≈ 569 µM)
  Solubility, Initial evaluation: 126.87 µg/mL (≈ 461 µM)
[2]; pH 4.6
  Solubility, After 24 hours: 147.14 µg/mL (≈ 535 µM)
  Solubility, Initial evaluation: 129.35 µg/mL (≈ 470 µM)
[2]; pH 6.0
  Solubility, After 24 hours: 143.2 µg/mL (≈ 520 µM)
  Solubility, Initial evaluation: 125.95 µg/mL (≈ 458 µM)
[2]; pH 6.8
  Solubility, After 24 hours: 146.25 µg/mL (≈ 531 µM)
  Solubility, Initial evaluation: 131.46 µg/mL (≈ 478 µM)
[2]; pH 7.4
  Solubility, After 24 hours: 143.79 µg/mL (≈ 522 µM)
  Solubility, Initial evaluation: 113.60 µg/mL (≈ 413 µM)
[2]; pH 8.0
  Solubility, After 24 hours: 146.25 µg/mL (≈ 531 µM)
  Solubility, Initial evaluation: 130.61 µg/mL (≈ 474 µM)
[3]
  Thermodynamic stability, conversion of one form into the other: thermodynamically stable, with no conversion of one into the other
